PubChem BioAssay AID2060621 (Molecular Pharmacology Branch, DTP, NCI, 2025)
Values joined by “and” are separate entries in the source; they are usually repeats but may differ in a detail not shown here. Identical values can stand only once.

Tested on: 324938-238-R-J1-PDC complex spheroids viability
Assay: Anticancer human tumor 324938-238-R-J1-PDC patient-derived bladder carcinoma cell line growth inhibition [CLK]
Details: for viability, T/C: stronger effect = lower value
How it was run: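 Patient-derived tumor cells grown as complex spheroids with HUVEC endothelial cells and mesenchymal stem cells, treated with drug combinations. Concentrations descend in half-log steps from near clinical Cmax, or from 10 microM if Cmax unknown.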

[1] = curve of first compound, second compound 0.0316 µM
[2] = curve of first compound, second compound 0.1 µM
[3] = curve of first compound, second compound 0.316 µM
[4] = curve of first compound, second compound 1 µM
[5] = curve of first compound, second compound 3.16 µM
[6] = curve of first compound, second compound 10 µM
[7] = second compound 0.0316 µM, first compound 0.0316 µM
[8] = second compound 0.0316 µM, first compound 0.1 µM
[9] = second compound 0.0316 µM, first compound 0.316 µM
[10] = second compound 0.0316 µM, first compound 1 µM
[11] = second compound 0.0316 µM, first compound 3.16 µM
[12] = second compound 0.0316 µM, first compound 10 µM
[13] = second compound 0.1 µM, first compound 0.0316 µM
[14] = second compound 0.1 µM, first compound 0.1 µM
[15] = second compound 0.1 µM, first compound 0.316 µM
[16] = second compound 0.1 µM, first compound 1 µM
[17] = second compound 0.1 µM, first compound 3.16 µM
[18] = second compound 0.1 µM, first compound 10 µM
[19] = second compound 0.316 µM, first compound 0.0316 µM
[20] = second compound 0.316 µM, first compound 0.1 µM
[21] = second compound 0.316 µM, first compound 0.316 µM
[22] = second compound 0.316 µM, first compound 1 µM
[23] = second compound 0.316 µM, first compound 3.16 µM
[24] = second compound 0.316 µM, first compound 10 µM
[25] = second compound 1 µM, first compound 0.0316 µM
[26] = second compound 1 µM, first compound 0.1 µM
[27] = second compound 1 µM, first compound 0.316 µM
[28] = second compound 1 µM, first compound 1 µM
[29] = second compound 1 µM, first compound 3.16 µM
[30] = second compound 1 µM, first compound 10 µM
[31] = second compound 3.16 µM, first compound 0.0316 µM
[32] = second compound 3.16 µM, first compound 0.1 µM
[33] = second compound 3.16 µM, first compound 0.316 µM
[34] = second compound 3.16 µM, first compound 1 µM
[35] = second compound 3.16 µM, first compound 3.16 µM
[36] = second compound 3.16 µM, first compound 10 µM
[37] = second compound 10 µM, first compound 0.0316 µM
[38] = second compound 10 µM, first compound 0.1 µM
[39] = second compound 10 µM, first compound 0.316 µM
[40] = second compound 10 µM, first compound 1 µM
[41] = second compound 10 µM, first compound 3.16 µM
[42] = second compound 10 µM, first compound 10 µM
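Further: viability read after seven days of drug exposure.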
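Wherever viability, T/C is given: 100% = DMSO vehicle control wells.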

Structure (SMILES): Nc1ccccc1NC(=O)c1ccc(CNC(=O)OCc2cccnc2)cc1 + CNC(=O)c1ccc(Nc2nc(OC3CCCC3)c3c(-c4ccc5nc(C)oc5c4)c[nH]c3n2)c(OC)c1
- IC50 [1]: 1470 nM
- IC50 [2]: < 31.6 nM
- IC50 [3]: < 31.6 nM
- IC50 [4]: < 31.6 nM
- IC50 [5]: < 31.6 nM
- IC50 [6]: < 31.6 nM
- viability, T/C [7]: 78.2%
- viability, T/C [8]: 91.8%
- viability, T/C [9]: 69%
- viability, T/C [10]: 57.2%
- viability, T/C [11]: 35%
- viability, T/C [12]: 5.41%
- viability, T/C [13]: 31.1%
- viability, T/C [14]: 32.7%
- viability, T/C [15]: 30.4%
- viability, T/C [16]: 34%
- viability, T/C [17]: 32.6%
- viability, T/C [18]: 4.92%
- viability, T/C [19]: 15.1%
- viability, T/C [20]: 17%
- viability, T/C [21]: 15.8%
- viability, T/C [22]: 23.2%
- viability, T/C [23]: 26.1%
- viability, T/C [24]: 3.89%
- viability, T/C [25]: 14.2%
- viability, T/C [26]: 14.6%
- viability, T/C [27]: 16.7%
- viability, T/C [28]: 23.7%
- viability, T/C [29]: 26.2%
- viability, T/C [30]: 2.44%
- viability, T/C [31]: 13%
- viability, T/C [32]: 15.2%
- viability, T/C [33]: 18.6%
- viability, T/C [34]: 18.9%
- viability, T/C [35]: 26.2%
- viability, T/C [36]: 2.46%
- viability, T/C [37]: 15.2%
- viability, T/C [38]: 17.1%
- viability, T/C [39]: 19%
- viability, T/C [40]: 20.7%
- viability, T/C [41]: 25.8%
- viability, T/C [42]: 2.14%

Structure (SMILES): COc1cccc2c1C(=O)c1c(O)c3c(c(O)c1C2=O)CC(O)(C(=O)CO)CC3OC1CC(N)C(O)C(C)O1 (stereo not given) + CN1CCN(c2cc(C(=O)Nc3cc4cc(-c5cnn(C)c5)ccc4cn3)ccn2)CC1
- IC50 [1]: < 31.6 nM
- IC50 [2]: < 31.6 nM
- IC50 [3]: < 31.6 nM
- IC50 [4]: < 31.6 nM
- IC50 [5]: < 31.6 nM
- IC50 [6]: < 31.6 nM
- viability, T/C [7]: 19.4%
- viability, T/C [8]: 14.4%
- viability, T/C [9]: 8.3%
- viability, T/C [10]: 0.88%
- viability, T/C [11]: 0.09%
- viability, T/C [12]: 0.14%
- viability, T/C [13]: 16.9%
- viability, T/C [14]: 16.5%
- viability, T/C [15]: 8.06%
- viability, T/C [16]: 0.56%
- viability, T/C [17]: 0.09%
- viability, T/C [18]: 0.68%
- viability, T/C [19]: 17.8%
- viability, T/C [20]: 16.2%
- viability, T/C [21]: 4.21%
- viability, T/C [22]: 0.29%
- viability, T/C [23]: 0.07%
- viability, T/C [24]: 0.12%
- viability, T/C [25]: 0.37%
- viability, T/C [26]: 0.2%
- viability, T/C [27]: 0.1%
- viability, T/C [28]: 0.09%
- viability, T/C [29]: 0.35%
- viability, T/C [30]: 0.44%
- viability, T/C [31]: 0.12%
- viability, T/C [32]: 0.28%
- viability, T/C [33]: 0.17%
- viability, T/C [34]: 0.06%
- viability, T/C [35]: 0.22%
- viability, T/C [36]: 0.3%
- viability, T/C [37]: 0.09%
- viability, T/C [38]: 0.18%
- viability, T/C [39]: 0.26%
- viability, T/C [40]: 0.1%
- viability, T/C [41]: 0.15%
- viability, T/C [42]: 0.48%

Structure (SMILES): CN1CCN(c2cc(C(=O)Nc3cc4cc(-c5cnn(C)c5)ccc4cn3)ccn2)CC1
- viability, T/C (compound 0.0316 µM): 80.8% [middle of 12 runs]
- viability, T/C (compound 0.1 µM): 54.8% [middle of 12 runs]
- viability, T/C (compound 0.316 µM): 22.3% [middle of 12 runs]
- viability, T/C (compound 1 µM): 1.3% [middle of 12 runs]
- viability, T/C (compound 3.16 µM): 0.22% [middle of 5 runs]
- viability, T/C (compound 10 µM): 0.22% [middle of 10 runs]
- IC50 (compound alone, run of 08/14/2023): 116 nM [middle of 10 runs]

Structure (SMILES): O=c1[nH]cc(F)c(=O)[nH]1
- viability, T/C (compound 0.0316 µM): 83.8% and 80.7%
- viability, T/C (compound 0.1 µM): 66.9% and 79.9%
- viability, T/C (compound 0.316 µM): 24.9% and 37%
- viability, T/C (compound 1 µM): 19.4% and 26%
- viability, T/C (compound 3.16 µM): 16.1% and 20.8%
- viability, T/C (compound 10 µM): 16.1% and 20.9%
- IC50 (curve of compound): 159 nM and 223 nM

Structure (SMILES): COC1C=CCC(C)C(C)S(=O)(=O)NC(=O)c2ccc3c(c2)N(CC2CCC21)CC1(CCCc2cc(Cl)ccc21)CO3 (stereo not given) + CN1CCN(c2cc(C(=O)Nc3cc4cc(-c5cnn(C)c5)ccc4cn3)ccn2)CC1
- IC50 [1]: 440 nM
- IC50 [2]: 292 nM
- IC50 [3]: < 31.6 nM
- IC50 [4]: < 31.6 nM
- IC50 [5]: < 31.6 nM
- IC50 [6]: < 31.6 nM
- viability, T/C [7]: 86.6%
- viability, T/C [8]: 87.2%
- viability, T/C [9]: 57.6%
- viability, T/C [10]: 27.6%
- viability, T/C [11]: 17.9%
- viability, T/C [12]: 11.9%
- viability, T/C [13]: 57.9%
- viability, T/C [14]: 52.9%
- viability, T/C [15]: 50.4%
- viability, T/C [16]: 25.9%
- viability, T/C [17]: 18.4%
- viability, T/C [18]: 13.9%
- viability, T/C [19]: 26.2%
- viability, T/C [20]: 26%
- viability, T/C [21]: 23.1%
- viability, T/C [22]: 13.1%
- viability, T/C [23]: 10.5%
- viability, T/C [24]: 8.58%
- viability, T/C [25]: 1.66%
- viability, T/C [26]: 1.72%
- viability, T/C [27]: 1.35%
- viability, T/C [28]: 0.96%
- viability, T/C [29]: 0.86%
- viability, T/C [30]: 0.63%
- viability, T/C [31]: 0.44%
- viability, T/C [32]: 0.47%
- viability, T/C [33]: 0.28%
- viability, T/C [34]: 0.21%
- viability, T/C [35]: 0.22%
- viability, T/C [36]: 0.36%
- viability, T/C [37]: 0.19%
- viability, T/C [38]: 0.17%
- viability, T/C [39]: 0.21%
- viability, T/C [40]: 0.19%
- viability, T/C [41]: 0.25%
- viability, T/C [42]: 0.25%
